Measurements published in US20240043418A1, “1,3-DIHYDRO-2H-PYRROLO[3,4-C]PYRIDINE DERIVATIVES AS GABAA A5 RECEPTOR MODULATORS” (Richter Gedeon Nyrt., priority 2020, published 2024).

Tests used:
[1] = molecular target: human recombinant GABAA α1β3γ2 receptor (Homo sapiens (Human), UniProt P14867+P18507); assay: Functional assay, QPatch automated patch clamp, modulation of GABA-evoked current; format: cell-based; details: tested at 10 μM; GABA 1 μM; HEK293 cells; percentage modulation of peak current
human recombinant GABAA α1β3γ2 receptor, sequence (P14867 28-456): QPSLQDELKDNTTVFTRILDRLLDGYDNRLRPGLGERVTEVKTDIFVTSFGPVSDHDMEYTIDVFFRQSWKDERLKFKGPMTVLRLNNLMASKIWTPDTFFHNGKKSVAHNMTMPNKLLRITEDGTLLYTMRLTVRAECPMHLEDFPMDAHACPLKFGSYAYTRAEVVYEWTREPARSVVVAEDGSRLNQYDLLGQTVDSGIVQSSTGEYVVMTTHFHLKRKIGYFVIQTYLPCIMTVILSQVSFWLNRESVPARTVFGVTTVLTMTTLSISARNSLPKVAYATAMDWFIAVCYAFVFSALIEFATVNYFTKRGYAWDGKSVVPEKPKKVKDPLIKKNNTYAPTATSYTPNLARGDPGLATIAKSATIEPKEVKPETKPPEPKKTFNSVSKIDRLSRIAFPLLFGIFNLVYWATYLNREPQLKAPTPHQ
human recombinant GABAA α1β3γ2 receptor, sequence (P18507 40-475): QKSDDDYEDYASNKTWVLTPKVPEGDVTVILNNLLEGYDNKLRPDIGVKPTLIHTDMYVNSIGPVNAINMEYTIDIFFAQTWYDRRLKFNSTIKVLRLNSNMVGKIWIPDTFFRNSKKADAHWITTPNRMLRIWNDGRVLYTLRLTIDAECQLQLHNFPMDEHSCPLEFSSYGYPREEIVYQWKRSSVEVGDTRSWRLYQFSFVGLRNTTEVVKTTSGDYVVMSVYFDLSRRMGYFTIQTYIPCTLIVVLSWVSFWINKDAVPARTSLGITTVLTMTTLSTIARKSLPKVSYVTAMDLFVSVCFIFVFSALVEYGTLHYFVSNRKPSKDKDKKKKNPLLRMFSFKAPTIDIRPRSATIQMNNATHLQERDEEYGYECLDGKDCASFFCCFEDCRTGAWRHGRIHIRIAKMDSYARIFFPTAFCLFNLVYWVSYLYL
human recombinant GABAA α1β3γ2 receptor, sequence (P28472 26-473 partner): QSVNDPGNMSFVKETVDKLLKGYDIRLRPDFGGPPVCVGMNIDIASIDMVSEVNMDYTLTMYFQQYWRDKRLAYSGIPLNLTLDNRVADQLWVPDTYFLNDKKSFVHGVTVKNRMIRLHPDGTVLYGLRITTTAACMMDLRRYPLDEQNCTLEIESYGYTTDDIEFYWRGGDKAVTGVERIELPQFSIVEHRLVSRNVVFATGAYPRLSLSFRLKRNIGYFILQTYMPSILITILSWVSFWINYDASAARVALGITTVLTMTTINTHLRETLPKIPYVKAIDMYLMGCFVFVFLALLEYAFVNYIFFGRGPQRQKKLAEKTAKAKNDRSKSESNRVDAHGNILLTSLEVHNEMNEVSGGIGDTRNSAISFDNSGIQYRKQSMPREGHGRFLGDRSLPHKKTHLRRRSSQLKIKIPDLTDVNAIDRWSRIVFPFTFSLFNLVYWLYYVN
Protocol: (§1) Human HEK293 cell lines expressing GABAA α1β3γ2 and GABAA α5β3γ2 receptors were used in functional assays using the QPatch automated patch clamp system.
(§2) HEK293 cell lines stably expressing human recombinant GABAA α1β3γ2 receptor subunits (Millipore, CYL3073) or human recombinant GABAA α5β3γ2 receptor subunits (Millipore, CYL3053) were cultured in DMEM supplemented with 10% FBS (Gibco), passed two times per week and plated on Petri dishes previously coated with poly-d-lysine.
(§3) Automated whole-cell patch clamp recordings were made from cells 2-4 days after plating. Cells were detached using trypsin/EDTA (Sigma) treatment (2 minutes in 0.25% trypsin at 37° C.), then, after centrifugation (125G, 3 min, 2×), resuspended in a serum-free based media (Gibco, CHO-S-SFM-II) containing 12.5 mM HEPES, 1×penicillin-streptomycin-amphotericin (SigmaMix) and soybean trypsin inhibitor (Sigma, 0.04 mg/ml).
(§4) Cell suspension, as well as the extracellular solution (130 mM NaCl, 5 mM KCl, 5.1 mM HEPES, 4.9 mM HEPES-Na, 10 mM CaCl2), 2 mM MgCl2, 10 mM glucose and 0.1% DMSO, pH=7.35-7.4) and the intracellular solution (80 mM KCl, 50 mM KF, 36 mM KOH, 10 mM EGTA, 10 mM HEPES, 1.75 mM MgCl2, 0.5 mM CaCl2), 4 mM Na2ATP. 14 mM phosphocreatine, 50 U/ml creatine-phosphokinase, 0.3 mM GTP, pH=7.25-7.3) were added to the QPatch-HTX automated patch clamp system (Sophion) in single-cell mode at room temperature. Inward currents were evoked at a holding potential of −80 mV by 3-s-long applications of the control agonist GABA at sub-maximal effective concentration (1 μM) at 2-4-min intervals first in concentration-matched DMSO (0.1 or 0.3%) control solution for five times, then in the presence of the test compound for four times, finally in control solution again for three times (wash-out). At the end of the experiment 100 μM GABA was applied to saturate the GABA-response and to assess the efficacy of the control GABA application. Current signals were low-pass filtered at 100 Hz and recorded at a sampling rate of 1 kHz.
(§5) The percentage modulation was calculated from the comparison of GAB A-evoked peak current amplitudes in the presence and absence of the test compound.

[2] = molecular target: T1, human recombinant GABAA α5β3γ2 receptor (Homo sapiens (Human), UniProt P18507+P31644); assay: as above; format: cell-based; details: tested at 10 μM; GABA 1 μM; HEK293 cells; percentage modulation of peak current
T1 sequence (P31644 32-462): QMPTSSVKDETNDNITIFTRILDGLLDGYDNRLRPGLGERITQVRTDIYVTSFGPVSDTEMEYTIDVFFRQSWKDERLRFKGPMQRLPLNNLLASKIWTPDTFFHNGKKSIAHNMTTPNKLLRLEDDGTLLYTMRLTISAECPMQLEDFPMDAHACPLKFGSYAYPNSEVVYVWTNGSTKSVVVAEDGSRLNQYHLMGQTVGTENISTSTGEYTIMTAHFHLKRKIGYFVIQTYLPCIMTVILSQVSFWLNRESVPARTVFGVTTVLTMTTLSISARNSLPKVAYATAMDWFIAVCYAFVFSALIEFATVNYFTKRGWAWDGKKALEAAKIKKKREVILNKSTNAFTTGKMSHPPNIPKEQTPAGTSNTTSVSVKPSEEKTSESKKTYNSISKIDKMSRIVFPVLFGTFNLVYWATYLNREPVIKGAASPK
T1 sequence (P18507 40-475): as the sequence (P18507 40-475) above
T1 sequence (P28472 26-473 partner): as the sequence (P28472 26-473 partner) above
Protocol: as §1, §2, §3, §4, §5

[3] = molecular target: T1, human recombinant GABAA α5β3γ2 receptor; assay: Receptor binding assay, [3H]Ro151788 displacement on membranes of HEK cells; details: [3H]Ro151788 0.5 nM, HEK cell membranes, 60 minutes at 4° C.; read-out: hGABAA α5 Ki
Protocol: The GABAA α5β3γ2 protein used for the receptor binding assay was derived from membranes produced from HEK cells (Millipore CYL3073) expressing the human recombinant GABAA α5β3γ2 receptor. Cells were stored and cultured in-house according to the instructions provided by the vendor (Millipor). Cell pellet was homogenized in 10 times modified Krebs Henseleit buffer (membrane preparation buffer): 20 mM Tris, 120 mM NaCl, 100 mM KCl, 25 mM CaCl2 and 25 mM MgCl2 pH=7.4 at 4° C. using Ultra Turrax (Janke&Kunkel) maximal speed for 15 seconds. The homogenate was centrifuged at 40,000 g for 30 minutes at 4° C. Supernatant was discarded and the resulting pellet was washed in membrane preparation buffer. Pellet was resuspended in membrane preparation buffer and aliquots of 1.4 mL ampulles were stored at −70° C. until use.
Receptor binding assays were performed in 96-well format in deep-well plates. For each 96-well plate one ampulle of membrane homogenate was thawed and diluted in binding buffer (50 mM Tris pH=7.4, 100 mM KCl) and 200 μL was dispensed into each well. Radioligand [^3H]Rol51788 (Perkin Elmer: NET757250UC) was prepared in binding buffer and added to each well in 50 μL volume to give final concentration of 0.5 nM. Test compounds in suitable concentration(s) were added in additional 50 μL. The final assay volume was 300 μL. Incubation was carried out for 60 minutes at 4° C. For non-specific binding 10 μM unlabeled diazepam was used. […] The plate was read in Microbeta (Perkin Elmer).
The specific radioligand binding (SB) was defined as the difference between total binding (Tot) and the non-specific binding (NSB). Results are expressed as a percent inhibition of specific binding obtained in the presence of compound of interest.
For IC50 and Ki determination a minimum of six drug concentrations in triplicate were used. […] Ki values (i.e. inhibition constants) were calculated using the Cheng-Prusoff equation Ki=IC50/[1+(L/KD)], where [L] is the radioligand concentration and KD the affinity of the labelled ligand for receptor. KD was determined from the Saturation analyses.

| hGABAA α1 efficacy [1] [%] | hGABAA α5 efficacy [2] [%] | Ki [3] [nM] | Structure (SMILES) |
| --- | --- | --- | --- |
| −2 | −43 | 10 | CC(=O)N1Cc2cnc(OCc3c(C)nnn3-c3ccc(F)cc3)cc2C1 [Example 1, 1-(6-{[1-(4-fluorophenyl)-4-methyl-1H-1,2,3-triazol-5-yl]methoxy}-1,3-dihydro-2H-pyrrolo[3,4-c]pyridin-2-yl)ethanone] |
| −6 | −47 | 32 | CC(=O)N1Cc2cnc(OCc3c(-c4ccc(F)cc4)nnn3C)cc2C1 [Example 2, 1-(6-{[4-(4-fluorophenyl)-1-methyl-1H-1,2,3-triazol-5-yl]methoxy}-1,3-dihydro-2H-pyrrolo[3,4-c]pyridin-2-yl)ethanone] |
| 13 | −44 | 0.9 | CC(=O)N1Cc2cnc(OCc3c(-c4ccc(F)cc4)noc3C)cc2C1 [Example 3, 1-(6-{[3-(4-fluorophenyl)-5-methyl-1,2-oxazol-4-yl]methoxy}-1,3-dihydro-2H-pyrrolo[3,4-c]pyridin-2-yl)ethanone] |
